How the values were obtained:
[1] = Selectivity ratio of EC50 for mouse NIH3T3 cells to EC50 for human MCF7 cells; assay type: toxicity; conditions: NIH3T3 cells versus MCF7 cells, read-out: Ratio EC50
[2] = Selectivity ratio of EC50 for mouse NIH3T3 cells to EC50 for human FaDu cells
HT-29 = assay: Cytotoxicity against human HT-29 cells assessed as reduction in cell viability incubated for 72 hrs by SRB assay; assay type: functional, cell-based
NIH3T3 = assay: Cytotoxicity against mouse NIH3T3 cells assessed as reduction in cell viability incubated for 72 hrs by SRB assay; assay type: cell-based
[3] = Selectivity ratio of EC50 for mouse NIH3T3 cells to EC50 for human HT-29 cells; assay type: toxicity; conditions: NIH3T3 cells versus HT-29 cells, read-out: Ratio EC50
A-375 = assay: Cytotoxicity against human A-375 cells assessed as reduction in cell viability incubated for 72 hrs by SRB assay; assay type: functional, cell-based
FaDu = assay: Cytotoxicity against human FaDu cells assessed as reduction in cell viability incubated for 72 hrs by SRB assay; assay type: functional, cell-based
A2780 = assay: Cytotoxicity against human A2780 cells assessed as reduction in cell viability incubated for 72 hrs by SRB assay; assay type: functional, cell-based
MCF7 = assay: Cytotoxicity against human MCF7 cells assessed as reduction in cell viability incubated for 72 hrs by SRB assay; assay type: functional, cell-based
[4] = Selectivity ratio of EC50 for mouse NIH3T3 cells to EC50 for human A2780 cells; assay type: toxicity; conditions: NIH3T3 cells versus A2780 cells, read-out: Ratio EC50
[5] = Selectivity ratio of EC50 for mouse NIH3T3 cells to EC50 for human A375 cells; assay type: toxicity; conditions: NIH3T3 cells versus A375 cells, read-out: Ratio EC50
[6] = Homo sapiens, HT-29, 72 h, read-out: EC50
[7] = Mus musculus, NIH3T3, 72 h, read-out: EC50
[8] = Homo sapiens, A-375, 72 h, read-out: EC50
[9] = Homo sapiens, FaDu, 72 h, read-out: EC50
[10] = Homo sapiens, A2780, 72 h, read-out: EC50
[11] = Homo sapiens, MCF7, 72 h, read-out: EC50

Compound	selectivity ratio [1]	Ratio EC50 [2]	EC50 (HT-29; [6]) [µM]	EC50 (NIH3T3; [7]) [µM]	selectivity ratio [3]	EC50 (A-375; [8]) [µM]	EC50 (FaDu; [9]) [µM]	EC50 (A2780; [10]) [µM]	EC50 (MCF7; [11]) [µM]	selectivity ratio [4]	selectivity ratio [5]	EC50 (HT-29; ht-29)	EC50 (NIH3T3; nih3t3)	EC50 (A-375; a-375)	EC50 (FaDu; fadu)	EC50 (A2780; a2780)	EC50 (MCF7; mcf7)
CC(=O)O[C@H]1CC[C@]2(C)[C@H]3CC[C@@H]4[C@H]5[C@H](C(C)=O)CC[C@]5(C(=O)Nc5cccc6ncccc56)CC[C@@]4(C)[C@]3(C)CC[C@H]2C1(C)C	4.3	4.7	> 30	> 30	1	4.6	6.42	5.4	7.06	5.6							
C=C(C)[C@@H]1CC[C@]2(C(=O)O)CC[C@]3(C)[C@H](CC[C@@H]4[C@@]5(C)CC[C@H](OC(C)=O)C(C)(C)[C@@H]5CC[C@]43C)[C@@H]12	2.7	4.2	21.3	> 30	1.4	19.2	7.2			1.6	1.6						
CC(=O)O[C@H]1C[C@]2(C)[C@H]3CC[C@@H]4[C@H]5[C@H](C(C)=O)CC[C@]5(C(=O)Nc5cccc6ncccc56)CC[C@@]4(C)[C@]3(C)CC[C@H]2C(C)(C)[C@H]1OC(C)=O												Nd(Insoluble)	Nd(Insoluble)	Nd(Insoluble)	Nd(Insoluble)	Nd(Insoluble)	Nd(Insoluble)
C=C(C)[C@@H]1CC[C@]2(C(=O)Nc3cccc4ncccc34)CC[C@]3(C)[C@H](CC[C@@H]4[C@@]5(C)CC[C@H](OC(C)=O)C(C)(C)[C@@H]5CC[C@]43C)[C@@H]12	2.5	5.8	> 30	> 30	1	3.05	5.18	5.08	12.1	5.9							
CC(=O)O[C@H]1CC[C@]2(C)[C@H]3CC[C@@H]4[C@H]5[C@H](C(C)=O)CC[C@]5(C(=O)O)CC[C@@]4(C)[C@]3(C)CC[C@H]2C1(C)C			> 30	> 30		> 30	> 30	> 30	> 30								
CC(=O)[C@@H]1CC[C@]2(C(=O)O)CC[C@]3(C)[C@H](CC[C@@H]4[C@@]5(C)CC[C@H](O)C(C)(C)[C@@H]5CC[C@]43C)[C@@H]12 [PLATANIC ACID]			> 30	> 30		> 30	> 30	> 30	> 30								
CC(=O)[C@@H]1CC[C@]2(C(=O)O)CC[C@]3(C)[C@H](CC[C@@H]4[C@@]5(C)C[C@H](O)[C@H](O)C(C)(C)[C@@H]5CC[C@]43C)[C@@H]12			> 30	> 30		> 30	> 30	> 30	> 30								
CC(=O)O[C@H]1CC[C@]2(C)[C@H]3CC[C@@H]4[C@H]5[C@H](C(C)=O)CC[C@]5(C(=O)Nc5cncc6ccccc56)CC[C@@]4(C)[C@]3(C)CC[C@H]2C1(C)C	3.2	3.9	> 30	> 30	1	5.66	7.67	7.84	9.34	3.8							
C=C(C)[C@@H]1CC[C@]2(C(=O)Nc3cncc4ccccc34)CC[C@]3(C)[C@H](CC[C@@H]4[C@@]5(C)C[C@H](OC(C)=O)[C@H](OC(C)=O)C(C)(C)[C@@H]5CC[C@]43C)[C@@H]12	4.1	7.5	> 15	> 30	2	3.34	4.02	4.76	7.33	6.3							
CC(=O)[C@@H]1CC[C@]2(C(=O)O)CC[C@]3(C)[C@H](CC[C@@H]4[C@@]5(C)C=C(O)C(=O)C(C)(C)[C@@H]5CC[C@]43C)[C@@H]12			> 30	> 30		> 30	> 30	20.6	24.8								
CC(=O)[C@@H]1CC[C@]2(C(=O)O)CC[C@]3(C)[C@H](CC[C@@H]4[C@@]5(C)CCC(=O)C(C)(C)[C@@H]5CC[C@]43C)[C@@H]12			> 30	> 30		> 30	> 30	> 30	> 30								
C=C(C)[C@@H]1CC[C@]2(C(=O)O)CC[C@]3(C)[C@H](CC[C@@H]4[C@@]5(C)CC[C@H](O)C(C)(C)[C@@H]5CC[C@]43C)[C@@H]12 [BETULINIC ACID]			> 30	> 30		> 30	> 30	> 30	> 30								
CC(=O)O[C@H]1CC[C@]2(C)[C@H]3CC[C@@H]4[C@H]5[C@H](C(C)=O)CC[C@]5(C(=O)NCc5ccccc5)CC[C@@]4(C)[C@]3(C)CC[C@H]2C1(C)C												Nd(Insoluble)	Nd(Insoluble)	Nd(Insoluble)	Nd(Insoluble)	Nd(Insoluble)	Nd(Insoluble)
CC(=O)O[C@H]1C[C@]2(C)[C@H]3CC[C@@H]4[C@H]5[C@H](C(C)=O)CC[C@]5(C(=O)NCc5ccccc5)CC[C@@]4(C)[C@]3(C)CC[C@H]2C(C)(C)[C@H]1OC(C)=O	5.8	5.4	7.22	> 30	4.2	2.9	5.57	2.36	5.2	12.7							
C=C(C)[C@@H]1CC[C@]2(C(=O)O)CC[C@]3(C)[C@H](CC[C@@H]4[C@@]5(C)CCC(=O)C(C)(C)[C@@H]5CC[C@]43C)[C@@H]12 [BETUNOLIC ACID]			18.5	19.4		14.3	17.4	4.7	12								
C=C(C)[C@@H]1CC[C@]2(C(=O)NCc3ccccc3)CC[C@]3(C)[C@H](CC[C@@H]4[C@@]5(C)CC[C@H](OC(C)=O)C(C)(C)[C@@H]5CC[C@]43C)[C@@H]12	1.1	3.1	> 30	> 30	1	4.05	9.59	6.29	26.8	4.8							
CC(=O)O[C@H]1C[C@]2(C)[C@H]3CC[C@@H]4[C@H]5[C@H](C(C)=O)CC[C@]5(C(=O)Nc5cncc6ccccc56)CC[C@@]4(C)[C@]3(C)CC[C@H]2C(C)(C)[C@H]1OC(C)=O	4.3	4.7	18.4	> 30	1.6	4.88	6.41	6.15	6.96	4.9							
COc1cccc2c1C(=O)c1c(O)c3c(c(O)c1C2=O)C[C@@](O)(C(=O)CO)C[C@@H]3O[C@H]1C[C@H](N)[C@H](O)[C@H](C)O1 [DOXORUBICIN]			> 30	1.3													
